{
  "source": "patent US8367328B2",
  "about": "“Method for synthesizing DNA” (Takara Bio Inc., priority 1998, dated 2013)",
  "target": "T1, KOD DNA Polymerase (Thermococcus kodakarensis, UniProt P77933, DEL407-766/DEL852-1388)",
  "T1 construct": "purchased TOYOBO CO., LTD",
  "T1 sequence (P77933 other isoform, or with tags, fused parts or gaps DEL407-766/DEL852-1388)": "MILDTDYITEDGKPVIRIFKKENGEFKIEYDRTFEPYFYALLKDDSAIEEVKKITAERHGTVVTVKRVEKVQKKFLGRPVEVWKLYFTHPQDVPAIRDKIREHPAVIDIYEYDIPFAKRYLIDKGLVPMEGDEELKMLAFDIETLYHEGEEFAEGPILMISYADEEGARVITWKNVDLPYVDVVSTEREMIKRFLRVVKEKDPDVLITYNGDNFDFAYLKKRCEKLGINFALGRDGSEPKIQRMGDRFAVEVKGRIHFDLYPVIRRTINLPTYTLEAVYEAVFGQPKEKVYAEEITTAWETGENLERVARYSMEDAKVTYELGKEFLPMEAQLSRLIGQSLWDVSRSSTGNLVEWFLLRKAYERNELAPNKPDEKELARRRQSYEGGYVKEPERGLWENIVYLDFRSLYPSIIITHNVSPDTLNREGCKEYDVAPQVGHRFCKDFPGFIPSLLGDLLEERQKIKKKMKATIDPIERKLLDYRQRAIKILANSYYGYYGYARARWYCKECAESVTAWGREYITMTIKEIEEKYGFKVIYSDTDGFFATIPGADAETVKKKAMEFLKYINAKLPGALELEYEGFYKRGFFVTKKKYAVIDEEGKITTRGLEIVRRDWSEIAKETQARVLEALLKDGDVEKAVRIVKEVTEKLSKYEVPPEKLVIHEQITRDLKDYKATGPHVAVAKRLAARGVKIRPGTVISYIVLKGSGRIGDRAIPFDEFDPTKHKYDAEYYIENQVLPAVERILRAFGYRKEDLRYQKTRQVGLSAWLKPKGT",
  "experiment": "PCR with KOD DNA Polymerase (α-type) in the presence of acidic substances",
  "format": "biochemical, Pyrococcus sp.",
  "conditions": "10 kb fragment, 100 pg λDNA, 30 cycles 98°C 5 s–68°C 3 min",
  "method": "(1) Using sodium alginate, sodium hyaluronate (manufactured by Seikagaku Kogyo), or κ carrageenan (manufactured by Sigma), the effects of these acidic substances on α-type DNA polymerase were examined. A reaction mixture comprising λDNA as a template, primers λ1 and λ8 as a primer pair, and KOD DNA Polymerase (manufactured by TOYOBO CO., LTD.) as DNA polymerase was prepared, and PCR was carried out. The composition of the reaction mixture is as follows. Composition of Reaction Mixture: KOD DNA Polymerase Buffer I (manufactured by TOYOBO CO., LTD.) 0.2 mM each of dATP, dCTP, dGTP and dTTP, 0.625 U of KOD DNA Polymerase, 100 pg of λDNA, and 5 pmol each of primers λ1 and λ8 (a final volume being 25 μl). Further, 1 μg or 2.5 μg of sodium alginate, 0.1 μg or 0.5 μg of sodium hyaluronate, or 0.1 μg or 0.25 μg of κ carrageenan was respectively added to the above reaction mixture.\nThe reaction in 30 cycles was carried out for each of these reaction mixtures, wherein one cycle of reaction comprises a process consisting of 98° C., 5 seconds—68° C., 3 minutes. Thereafter, 5 μl of the resulting reaction mixture was subjected to electrophoresis on 1% agarose gel containing ethidium bromide in an amount of 0.00005%, whereby an amplified fragment was confirmed.\n(2) The effects on α-type DNA polymerase were also examined in the same manner as in item (1) above for sodium alginate, κ carrageenan, sodium heparan sulfate (manufactured by Sigma), sodium dermatan sulfate (manufactured by Sigma), potassium polyvinyl sulfate (manufactured by nacalaitesque) or sodium polystyrenesulfonate (two kinds: average molecular weights of 5,400 and 35,000, all manufactured by nacalaitesque). A reaction mixture comprising λDNA as a template, primers λ1 and λ8 as a primer pair, and KOD DNA Polymerase as DNA polymerase was prepared, and PCR was carried out. The composition of the reaction mixture is as follows. Composition of Reaction Mixture: KOD DNA Polymerase Buffer II (manufactured by TOYOBO CO., LTD.) 0.2 mM each of dATP, dCTP, dGTP and dTTP, 1.25 U of KOD DNA Polymerase, 100 pg of λDNA, and 10 pmol each of primers λ1 and λ8 (a final volume being 50 μl). Further, 2.5 μg or 5 μg of sodium alginate, 0.25 μg or 0.5 μg of κ carrageenan, or 125 ng, 250 ng or 375 ng of sodium dermatan sulfate, 500 ng of sodium heparan sulfate, 10 ng of potassium polyvinyl sulfate, 2.5 ng or 5 ng of sodium polystyrenesulfonate (average molecular weight: 5,400), or 5 ng of sodium polystyrenesulfonate (average molecular weight: 35,000) was respectively added to the above reaction mixture.",
  "data": [
    {"substance": "sodium alginate", "values": [
      {"measurement": "Amplification Results", "setting": "Buffer I, 0.625 U KOD, primers λ1/λ8, 25 μl, amount added 1 μg", "value": "++ (Intensive amplification being observed)"},
      {"measurement": "Amplification Results", "setting": "Buffer I, 0.625 U KOD, primers λ1/λ8, 25 μl, amount added 2.5 μg", "value": "++ (Intensive amplification being observed)"},
      {"measurement": "Amplification Results", "setting": "Buffer II, 1.25 U KOD, primers λ1/λ8, 50 μl, amount added 2.5 μg", "value": "++ (Intensive amplification being observed)"},
      {"measurement": "Amplification Results", "setting": "Buffer II, 1.25 U KOD, primers λ1/λ8, 50 μl, amount added 5 μg", "value": "++ (Intensive amplification being observed)"}
    ]}
  ]
}
